Measured values published in ChEMBL document CHEMBL6177984, “Pyrazolo[1,5-a]pyrimidine-Based Type-I Photosensitizer as an Efficient Pyroptosis Inducer for Tumor Ablation” (J Med Chem, 2025).
The source made the active and inactive calls. The calls are words filed in the database; no cut-off is given here.

Columns and labels:
MDA-MB-231 [1] = test: Photocytotoxicity in human MDA-MB-231 cells assessed as cell viability preincubated with compound for 1 hr followed by light irradiated with 400 to 700 nm 100 mW/cm^2 for 10 mins and measured after 24 hrs by CCK-8 assay; format: functional, cell-based; conditions: MDA-MB-231, light or radiation study
[2] = Dark cytotoxicity against human MDA-MB-231 cells assessed as cell viability incubated for 24 hrs by CCK8 assay; format: toxicity, cell-based
MDA-MB-231 [3] = test: Photocytotoxicity in human MDA-MB-231 cells assessed as cell viability at 1 uM preincubated with compound for 1 hr followed by light irradiated with 400 to 700 nm 100 mW/cm^2 for 10 mins and measured after 24 hrs by CCK-8 assay; format: functional, cell-based; conditions: time 1510.0 min
MDA-MB-231 [4] = test: Induction of ROS production in human MDA-MB-231 cells assessed as increase in intracellular OH level at 0.3 uM preincubated with compound for 1 hr followed by light irradiation with 400 to 700 nm 100 mW/cm2 for 10 mins by HPF fluorescent probe based flow cytometry; format: functional, cell-based; conditions: time 70.0 min

| Compound | IC50 (MDA-MB-231 [1]) [nM] | IC50 at 24 h [2] [µM] | Activity (MDA-MB-231 [3]) | Activity (MDA-MB-231 [4]) |
| --- | --- | --- | --- | --- |
| C[N+]1=C(/C=C/c2ccc(-c3cnn4ccc(N5CCOCC5)nc34)s2)C(C)(C)c2ccccc21 | 330 | > 10 | Active | – |
| O=S(=O)(O)c1cc(O)c(O)c(S(=O)(=O)O)c1 | – | – | – | Active |
| CC[N+]1=C(/C=C/c2ccc(-c3cnn4ccc(N5CCOCC5)nc34)s2)C(C)(C)c2cc(I)ccc21 | 280 | > 10 | Active | – |
| CC[n+]1ccc(/C=C/c2ccc(-c3cnn4ccc(N5CCOCC5)nc34)s2)c2ccccc21 | 920 | > 10 | – | – |
